We go through eight molecules from patent publication US4837241A (priority 1986, dated 1989).

For data set [1], the target named is muscarinic acetylcholine receptors. It counts as binding, rat (male Wistar). The note with it: 3H-QNB 1 nM; whole forebrain membranes, male Wistar rats; 37° C., 20 min, pH 7.1; non-specific: atropine 1 μg/ml.
Data set [2] deals with muscarinic cholinergic. The note with it: background, in words; cited from earlier work.
Data set [3] deals with muscarinic. The note with it: background, in words; cited from earlier work.
For data set [4] the following is noted: background, in words; cited from earlier work.
The conditions of data set [5]: background, in words; cited from earlier work. This is another data set of the same source.

As for `CCc1noc(C2=CCCN(C)C2)n1`, the “QNB binding Inhibition in vitro (IC50)” value in data set [1] turned out to be 3.5 µg/mL.
Still for that read-out and setting: then `CN1CCC=C(c2nc(C3CC3)no2)C1`, with 2.0 µg/mL.
With `CCCc1nc(C2=CCCN(C)C2)no1`, the “QNB binding Inhibition in vitro (IC50)” value in data set [1] was determined as 3.2 µg/mL.
Regarding `CC(C)c1noc(C2=CCCN(C)C2)n1`, the “QNB binding Inhibition in vitro (IC50)” value in data set [1] amounted to 4.9 µg/mL.
Regarding `C1=C(c2nc(C3CC3)no2)CNCC1`, the “QNB binding Inhibition in vitro (IC50)” value in data set [1] was 4.7 µg/mL.
Consider `CCCCc1noc(C2=CCC(C)N(C)C2)n1` (centres unmarked), for which, in data set [1], the “QNB binding Inhibition in vitro (IC50)” value was 3.3 µg/mL.
Take `CCc1noc(C2=CC(C)CNC2)n1` (centres unmarked): the “QNB binding Inhibition in vitro (IC50)” value in data set [1] was determined as 7.5 µg/mL.
On to `COC(=O)C1=CCCN(C)C1` [arecoline, methyl 1-methyl-1,2,5,6-tetrahydropiperidine-3-carboxylate], for which, in data set [2], the cholinergic agonist result was “cholinergic agonist”. Also, the “separation between central and peripheral muscarinic effects” value in data set [3] was “small separation between central and peripheral muscarinic effects”. The toxicity result in data set [4] was “rather toxic compound”. Besides, in data set [5], the biological half life entry is on record as “very short biological half life”.
